Converted amounts (≈) assume the structure as drawn. “And” between values parts separate entries of the source, which are not always exact repeats. Equal values may be shown once. “Also recorded” adds a separate entry of the source. Read-outs that look alike come from different tables or passages of the source.
Tests used:
[1] = target: M. tuberculosis CoaBC (Mycobacterium tuberculosis, UniProt P9WNZ1); type: binding
[2] = tested on: Mtb CoaE; design: method as in PMID 21731728; conditions: 100 μM CTP; cited from earlier work
[3] = tested on: Mtb H37RvMA; assay: microbe, parasite or virus in culture; type: cell-based, Mycobacterium tuberculosis
[4] = target: Mtb CoaB (Mycobacterium tuberculosis, UniProt P9WNZ1); assay: BIOMOL Green end-point pyrophosphate quantification assay (high-throughput screen); type: biochemical
Chain of Mtb CoaB (P9WNZ1 whole entry): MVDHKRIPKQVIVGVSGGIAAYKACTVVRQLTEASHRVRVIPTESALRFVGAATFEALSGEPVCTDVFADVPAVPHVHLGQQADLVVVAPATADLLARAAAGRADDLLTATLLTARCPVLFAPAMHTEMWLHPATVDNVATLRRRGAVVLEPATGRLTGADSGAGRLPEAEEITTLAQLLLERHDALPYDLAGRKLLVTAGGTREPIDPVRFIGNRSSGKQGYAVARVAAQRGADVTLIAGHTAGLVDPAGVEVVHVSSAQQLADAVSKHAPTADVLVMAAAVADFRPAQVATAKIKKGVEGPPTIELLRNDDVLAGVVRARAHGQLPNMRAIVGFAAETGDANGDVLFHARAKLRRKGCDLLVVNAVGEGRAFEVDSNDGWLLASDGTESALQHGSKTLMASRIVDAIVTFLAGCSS

[5] = type: in vitro ADME, mouse; conditions: microsomes
From the text: (§1) Compounds were profiled for HepG2 cytotoxicity, mouse liver microsomal clearance, and aqueous solubility, as previously described.[66]

[6] = tested on: pyrophosphatase; assay: Counter-screen for false positives (pyrophosphatase inactivation); type: biochemical
Description: Counter-screens carried out to exclude false positive compounds were performed in 50 μL reactions containing 0.5 U/mL pyrophosphatase and 2 μM pyrophosphate in 100 mM Tris-HCl, pH 7.6, buffer containing 1 mM MgCl2 and 1 mM TCEP for 2 h at room temperature in 384-well microplates (Greiner Bio-One). Control reactions were performed in the absence of the pyrophosphatase. The reactions were terminated by addition of 50 μL BIOMOL Green (Enzo Life Sciences), and product formation was measured by absorbance (650 nm) using a PHERAstar microplate reader (BMG Labtech) following incubation for 20 min. Liquid dispensing was performed using a Thermo Scientific Matrix Wellmate, and data were processed and analyzed using ActivityBase (IDBS).

[7] = physchem; type: physicochemical
From the text: Table 1 SAR and In Vitro Profiling of Modifications to Compound 1a ^a | column: CHI LogD

[8] = physchem; type: physicochemical; conditions: kinetic from dmso stock
From the text: as §1

[9] = tested on: HepG2 cells; assay: HepG2 cytotoxicity; type: cell-based; conditions: Homo sapiens
From the text: as §1

[10] = target: T1, Mtb CoaBC (Mycobacterium tuberculosis, UniProt P9WNZ1)
T1 sequence (P9WNZ1 whole entry): as above

[11] = target: T1, Mtb CoaBC; assay: biochemical
[12] = tested on: coaBC Tet-OFF hypomorph; assay: microbe, parasite or virus in culture; type: cell-based, Mycobacterium tuberculosis; conditions: for MIC: read-out: MIC in the presence of PantS; for Effect of ATc-mediated coaBC silencing on susceptibility of the coaBC hypomorph (hypersensitization): increasing ATc, inhibitor up to 125 μM
[13] = tested on: coupled reporter enzymes (inorganic pyrophosphatase, purine nucleoside phosphorylase); assay: Inhibition of the coupled reporter enzymes of the EnzChek assay; type: biochemical; conditions: at 100 μM
[14] = tested on: wild-type Mtb H37RvMA; assay: LC-MS metabolomic profiling of Mtb after compound exposure; type: cell-based, Mycobacterium tuberculosis; conditions: 5 μM or 50 μM, 24 h
[15] = target: human CoaB (Homo sapiens, UniProt Q9HAB8); assay: EnzChek coupled enzyme pyrophosphate assay, human CoaB; type: biochemical; conditions: 1 μM human CoaB; read-out: IC50 against human CoaB (EnzChek assay)
Chain of human CoaB (Q9HAB8 whole entry): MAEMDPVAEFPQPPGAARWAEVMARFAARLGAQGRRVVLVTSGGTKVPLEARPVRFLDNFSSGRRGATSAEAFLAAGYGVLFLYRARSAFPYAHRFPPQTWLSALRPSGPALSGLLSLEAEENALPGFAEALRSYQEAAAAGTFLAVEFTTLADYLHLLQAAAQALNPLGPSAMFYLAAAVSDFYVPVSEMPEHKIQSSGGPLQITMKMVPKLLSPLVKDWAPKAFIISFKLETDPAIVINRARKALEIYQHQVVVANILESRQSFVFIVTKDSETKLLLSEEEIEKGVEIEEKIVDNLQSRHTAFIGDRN

[16] = target: T1, Mtb CoaBC; assay: CMP quantification assay for L-cysteine kinetics and competition; type: biochemical
[17] = tested on: CoaB; design: method as in PMID 33420031; conditions: allosteric CoaB inhibitor; cited from earlier work
[18] = tested on: Mtb H37RvMA; design: method as in PMID 33420031; conditions: cited from earlier work
[19] = tested on: panC Tet-OFF hypomorph; type: cell-based, Mycobacterium tuberculosis; conditions: pantothenate 25 µg/mL
[20] = tested on: coaBC hypomorph; type: cell-based, Mycobacterium tuberculosis; conditions: ATc 200 ng/mL; pantothenate 25 µg/mL
[21] = tested on: Nc1ccn([C@@H]2O[C@H](COP(=O)(O)OP(=O)(O)OP(=O)(O)O)[C@@H](O)[C@H]2O)c(=O)n1; assay: purified protein, by the assay type; conditions: other: other substrates fixed (125 μM CTP or PPA, 500 μM L-cysteine); pH 7.5
[22] = tested on: CC(C)(COP(=O)(O)O)[C@@H](O)C(=O)NCCC(=O)O; assay: purified protein, by the assay type; conditions: other: other substrates fixed (125 μM CTP or PPA, 500 μM L-cysteine); pH 7.5
[23] = Mycobacterium tuberculosis, H37RV, read-out: Mtb H37Rv MIC
[24] = BIOMOL Green pyrophosphate quantification assay

Chain of M. tuberculosis CoaBC (P9WNZ1 whole entry): as the sequence (P9WNZ1 whole entry) above

With `Nc1ccn([C@@H]2O[C@H](COP(=O)(O)O)[C@@H](O)[C@H]2O)c(=O)n1` [CMP, cytidine-5′-monophosphate] the “Thermal shift relative to CoaBC, Substrate” value [1] was 1.5 °C.

For `Nc1ccn([C@@H]2O[C@H](COP(=O)(O)OP(=O)(O)OP(=O)(O)O)[C@@H](O)[C@H]2O)c(=O)n1` [CTP, cytidine-5′-triphosphate], the “Decrease in CoaE activity” value [2] is given as “greater than 60%” and the “Thermal shift relative to CoaBC, Substrate” value [1] is given as 5.5 °C.

`Cc1nn(-c2ccccc2)c(O)c1Sc1ccccc1` [Compound 1a, 4-Phenylsulfanyl-5-methyl-2-phenyl-pyrazol-3-ol] showed an MIC [3, 23] of over 125 µM, an MIC ([3]; read-out: Mtb H37Rv MIC) of over 125 µM and an IC50 [4, 24] of 9.9 µM. The “Mouse Cli (intrinsic clearance)” value ([5]; mouse) was under 0.5 mL/min/g, the “Activity in counter-screen for pyrophosphatase inactivation” value [6] was “inactivity” and the chromatographic logD [7] was 0.4. The solubility kinetic [8] was 219 µM (≈ 61.8 µg/mL) and the IC50 [9] was over 50 µM.

In the case of `Cc1ccc(Sc2c(C)nn(-c3ccccc3)c2O)cc1` [Compound 1b, 4-(4-Methylphenyl)sulfanyl-5-methyl-2-phenyl-pyrazol-3-ol], the MIC [3, 23] is reported as over 125 µM, the IC50 [4, 24] is reported as 3.3 µM and the “Mouse Cli (intrinsic clearance)” value ([5]; mouse) is reported as 1.1 mL/min/g. For the same compound, the chromatographic logD [7] was 0.7, the solubility kinetic [8] was 156 µM (≈ 46.2 µg/mL) and the IC50 [9] was over 50 µM.

For `Cc1nn(-c2ccccc2)c(O)c1Sc1ccc(Cl)cc1` [Compound 1c, 4-(4-Chlorophenyl)sulfanyl-5-methyl-2-phenyl-pyrazol-3-ol], the MIC [3, 23] was over 125 µM, the IC50 [4, 24] was 4 µM and the “Mouse Cli (intrinsic clearance)” value ([5]; mouse) was 2.2 mL/min/g. For the same compound, the chromatographic logD [7] was 0.7, the solubility kinetic [8] was 110 µM (≈ 34.8 µg/mL) and the IC50 [9] was over 50 µM.

In the case of `Cc1nn(-c2ccccc2)c(O)c1Sc1ccc(Cl)cc1Cl` [Compound 1d], the MIC [3, 23] is reported as over 125 µM, the IC50 [4, 24] is reported as 3.2 µM and the IC50 [9] is reported as over 50 µM.

With `COc1ccc(Sc2c(C)nn(-c3ccccc3)c2O)cc1` [Compound 1e, 4-(4-Methoxyphenyl)sulfanyl-5-methyl-2-phenyl-pyrazol-3-ol] the MIC [3, 23] was over 125 µM, the “Fold increase in potency against Mtb CoaB relative to 1a” value [4] was 4 fold and the IC50 [4, 24] was 2.8 µM. The IC50 [9] was over 50 µM.

For `Cc1nn(-c2ccccc2)c(O)c1Sc1nc2cc(Cl)ccc2o1` [Compound 1f, 4-(5-Chloro-1,3-benzoxazol-2-yl)sulfanyl-5-methyl-2-phenyl-pyrazol-3-ol], the “Mode of inhibition with respect to CTP” value [10] was “noncompetitive inhibition”, the “Mode of inhibition with respect to PPA” value [10] was “uncompetitively; also recorded: uncompetitive inhibition” and the “αKi, uncompetitive inhibition for PPA” value ([10]; varying PPA) was 19.0 ± 0.6 µM. The IC50 [11] was 24.3 µM, the Ki [11] was 10.1 ± 1.4 µM and the “Effect of ATc on activity against wild-type Mtb H37RvMA” value [3] was “no effect”. The “Rescue from compound toxicity by PantS supplementation” value [3] was “rescued the wild-type strain”, the MIC [3, 23] was 25.9 µM (≈ 9.27 µg/mL) and the MIC ([3]; Mycobacterium tuberculosis, H37RVMA, read-out: MIC in the presence of PantS) was 83.3 µM. It also gave an MIC ([3]; read-out: MIC in the presence of PantS) of over 125 µM, an IC50 [4, 24] of 15.6 µM and an MIC ([12]; Mycobacterium tuberculosis) of 77.2 µM. For the same compound, the “Fold decrease in MIC against coaBC hypomorph” value ([12]; in the presence of 12.5 ng/mL ATc) was about 7 fold, the “Effect of ATc-mediated coaBC silencing on susceptibility of the coaBC hypomorph (hypersensitization)” value (from here on “Effect of ATc-mediated coaBC silencing”) [12] was “dose-dependent hypersensitization” and the “Fold reduction in susceptibility of coaBC hypomorph on PantS supplementation” value ([12]; pantethine 2.5 mg/mL) was 4 fold. For the same compound, the MIC [12] was over 125 µM, the “Mouse Cli (intrinsic clearance)” value ([5]; mouse) was 2.3 mL/min/g and the “Activity on the coupled reporter enzymes” value [13] was “inactive”. For the same compound, the “Change in abundance of CoA thioesters propionyl-CoA, succinyl-CoA and malonyl-CoA relative to untreated bacilli” value [14] was “notable depletion”, the “Change in abundance of dephospho-CoA relative to untreated bacilli” value [14] was “substantial accumulation” and the “Change in the level of CoA” value [14] was “no detectable change”. The chromatographic logD [7] was 0.8, the solubility kinetic [8] was 219 µM (≈ 78.4 µg/mL) and the IC50 [15] was 23.4 µM. For the same compound, the “Mode of inhibition with respect to L-cysteine” value [16] was “noncompetitive inhibition”, the Ki ([16]; varying L-cysteine) was 22.7 ± 7.6 µM and the “ΔTm (difference in melting temperature in the presence and absence of 1f)” value [1] was 0 °C and 1 °C. For the same compound, the IC50 [9] was over 50 µM.

With `Cc1nn(-c2ccc(Cl)cc2)c(O)c1Sc1ccc(Cl)cc1` [Compound 1g, 2-(4-Chlorophenyl)-4-(4-chlorophenyl)sulfanyl-5-methyl-pyrazol-3-ol] the MIC [3, 23] was over 125 µM, the IC50 [4, 24] was 3.5 µM and the “Effect of ATc-mediated coaBC silencing” value [12] was “lack of hypersensitization”. The “Mouse Cli (intrinsic clearance)” value ([5]; mouse) was 2.8 mL/min/g, the chromatographic logD [7] was 1.5 and the solubility kinetic [8] was 110 µM (≈ 38.6 µg/mL).

With `Cc1nn(-c2cccc(Cl)c2)c(O)c1Sc1ccc(Cl)cc1` [Compound 1h, 2-(3-Chlorophenyl)-4-(4-chlorophenyl)sulfanyl-5-methyl-pyrazol-3-ol] the MIC [3, 23] was over 125 µM, the IC50 [4, 24] was 2.3 µM and the “Effect of ATc-mediated coaBC silencing” value [12] was “lack of hypersensitization”. The “Mouse Cli (intrinsic clearance)” value ([5]; mouse) was 2.6 mL/min/g, the chromatographic logD [7] was 1.5 and the solubility kinetic [8] was 55 µM (≈ 19.3 µg/mL).

For `Cc1nn(-c2ccc(Cl)cn2)c(O)c1Sc1ccc(Cl)cc1` [Compound 1i], the MIC [3, 23] was 6.2 µM (≈ 2.18 µg/mL), the IC50 [4, 24] was over 50 µM and the “Mtb CoaB IC50” value [4, 24] was “complete loss of inhibitory activity”. The “Effect of ATc-mediated coaBC silencing” value [12] was “lack of hypersensitization”, the “Mouse Cli (intrinsic clearance)” value ([5]; CD1, mouse) was under 0.5 mL/min/g and the chromatographic logD [7] was 3.7. For the same compound, the solubility kinetic [8] was 79 µM (≈ 27.8 µg/mL) and the IC50 [9] was 40 µM.

For `O=c1cc(-c2ccc(O)c(O)c2)oc2cc(O)c(O)cc12` [Compound 2b, reference compound], the IC50 [17] is given as 0.08 µM, the “Change in abundance of CoA thioesters propionyl-CoA, succinyl-CoA and malonyl-CoA relative to untreated bacilli” value [14] is given as “notable depletion” and the “Change in abundance of dephospho-CoA relative to untreated bacilli” value [14] is given as “substantial accumulation”. For the same compound, the “Change in the level of CoA” value [14] was “no detectable change” and the “MIC against Mtb (whole-cell activity)” value [18] was over 250 µM.

For `N[C@@H](CS)C(=O)O` [L-cysteine], the “Thermal shift relative to CoaBC, Substrate” value [1] was 0.5 °C.

With `CC(C)(COP(=O)(O)O)[C@@H](O)C(=O)NCCC(=O)O` [PPA, 4′-phosphopantothenate] the “Thermal shift relative to CoaBC, Substrate” value [1] was 3.5 °C.

With `CC(C)(CO)[C@@H](O)C(=O)NCCC(=O)O` [Pan, pantothenate] the “Rescue from growth inhibitory effects of PanC deficiency” value [19] was “fully rescued” and the “Rescue of growth of the coaBC hypomorph” value [20] was “unable to restore growth”.

For `NNC(=O)c1ccncc1` [isoniazid, reference compound], the “Effect of ATc-mediated coaBC silencing” value [12] was “did not render the coaBC hypomorph more susceptible”.

With `CO[C@H]1/C=C/O[C@@]2(C)Oc3c(C)c(O)c4c(O)c(c(/C=N/N5CCN(C)CC5)c(O)c4c3C2=O)NC(=O)/C(C)=C\C=C\[C@H](C)[C@H](O)[C@@H](C)[C@@H](O)[C@@H](C)[C@H](OC(C)=O)[C@@H]1C` [rifampicin, reference compound] the “Effect of ATc-mediated coaBC silencing” value [12] was “did not render the coaBC hypomorph more susceptible”.

“Mtb CoaBC (Mycobacterium tuberculosis H37Rv)” gave a Km [21] of 27.4 ± 2.6 µM and a Km [22] of 45.4 ± 5.3 µM.

— paper PMC8205227 (ACS Infectious Diseases, 2021)
